Article PMC8222254, “Self-assembly of an anion receptor with metal-dependent kinase inhibition and potent in vitro anti-cancer properties” (Nature Communications, 2021)
Values joined by “and” are separate entries in the source; they are usually repeats but may differ in a detail not shown here. Equal values may be shown once. Read-outs that look alike come from different tables or passages of the source.

Assays:
Assay in all cases: Chemosensitivity, 96 h continuous exposure, MTT assay
Type in all cases: cell-based, human
DLD-1 = tested on: DLD-1
From the text: (§1) All cell lines were purchased from and maintained as monolayers as described by the American Type Culture Collection with the exception of the p53^+/+ and p53^−/− isogenic clones of HCT116 human colorectal adenocarcinoma cells which were a kind gift from Professor Bert Vogelstein[54]. GBM1 cells were established from a primary GBM tumour by Heiko Wurdak and colleagues[32],[33]. Non-cancerous adult brain neural progenitor (NP1) cells were derived from a patient undergoing surgery to treat epilepsy[32],[33]. Cell culture and growth media for NP1 and GBM1 cells were as described[32],[33]. The response of cells following a continuous 96-h exposure to test compounds and platinates was determined using the MTT assay. Potency was recorded as the IC50 and the selectivity index (SI) was defined as the ratio of IC50 values for non-cancer to cancer cell lines with values >1 representing selectivity for cancer cells as opposed to non-cancer cells.
(§2) All cell lines used were maintained at low passage in antibiotic-free media. HT29, DLD-1, HCT116 p53^+/+ and HCT116 p53^−/− are all colorectal adenocarcinoma cell lines derived from different individuals and harbour different combinations of oncogenic lesions (except for the HCT116 isogenic cancer cell clones that are genetically identical except for p53 status). PSN-1, BxPC-3 and MiaPaCa2 are pancreatic carcinoma cell lines and A549 and H460 are lung carcinoma cell lines. HT29, DLD-1, PSN-1, BxPC-3, A549 and H460 cell lines were cultured in RPMI-1640 growth media (Sigma) containing 2 mM L-glutamine, 1 mM sodium pyruvate and 10% foetal bovine serum (FBS). HCT116 (p53^+/+ and p53^−/−) and MiaPaCa2 cell lines were cultured in Dulbecco’s Modified Eagle’s Medium (Sigma), 2 mM L-glutamine and 10% FBS. The ARPE-19 retinal epithelial non-cancer cell line was cultured in DMEM/F12 media (Gibco), 2 mM L-glutamine, 1 mM sodium pyruvate and 10% FBS. The MCF10A non-cancerous human breast epithelial cell line was cultured in Minimal Essential Media Eagle (Sigma), 2 mM L-glutamine, 1 mM sodium pyruvate, 10% FBS and 1x non-essential amino acids (NEAA). NP1 and GBM1 cells were cultured on plasticware coated with poly-L-ornithine (5 µg/ml) and laminin (2.4 µg/ml)[32],[33]. NP1 cells were grown in DMEM/F12 media (Gibco) supplemented with 5% FBS, 20 ng/ml hFGF, 20 ng/ml rhEGF, 0.5x B-27 supplement (Gibco), 0.5x N-2 supplement (Gibco) and 1x GLUTAMAX (Gibco). GBM1 cells were cultured in Neurobasal media (Gibco) supplemented with 40 ng/ml hFGF, 40 ng/ml rhEGF, 0.5x B-27 supplement (Gibco) and 0.5x N-2 supplement (Gibco).
(§3) [L2(Metal)3]^6+ and all the other self-assembling complexes were freshly formed by adding DMSO to individual components and mixing together by pipetting. These were then further diluted in cell culture media such that the final DMSO concentration that cells were exposed to was 0.2% (vehicle control). Cisplatin, oxaliplatin and carboplatin were dissolved in phosphate buffered saline. Cell lines were seeded into 96 well plates at 2 × 10^3 cells per well and incubated overnight at 37 °C. GBM1 cancer stem-like cells were seeded at 3 × 10^3 cells per well and NP1 neural progenitors were seeded at 1.5 × 10^3 cells per well. The following day, media was removed and replaced with fresh media containing test compounds at a range of concentrations. Cells were incubated with test compounds for a further 96 h after which the media was removed and replaced with fresh media (200 μl/well). MTT was added (20 μl at 5 mg/ml) and cells were incubated for a further 4 h. Media and MTT were removed and formazan crystals were dissolved in 150 μl of DMSO and the absorbance of the resulting solution determined at 540 nm. Dose response curves were constructed, and the concentration required to reduce cell growth by 50% (IC50) determined.

MiaPaCa2 = tested on: MiaPaCa2
From the text: as §1, §2, §3

ARPE-19 non-cancer cells = tested on: ARPE-19 non-cancer cells
From the text: as §1, §2, §3

BxPC3 = tested on: BxPC3
From the text: as §1, §2, §3

A549 = tested on: A549
From the text: as §1, §2, §3

HCT116 p53+/+ = settings: for Selectivity index (ARPE19): IC50 ARPE-19 / IC50 HCT116 p53+/+
From the text: as §1, §2, §3

MCF10A non-cancer cells = tested on: MCF10A non-cancer cells
From the text: as §1, §2, §3

[1] = ARPE-19 non-cancer, read-out: Mean IC50 values
[2] = HCT116 p53+/+, read-out: Mean IC50 values

## O=P([O-])([O-])[O-].[Cu+2].[Cu+2].[Cu+2].c1ccc(-c2csc(NCCN(CCNc3nc(-c4ccccn4)cs3)CCNc3nc(-c4ccccn4)cs3)n2)nc1.c1ccc(-c2csc(NCCN(CCNc3nc(-c4ccccn4)cs3)CCNc3nc(-c4ccccn4)cs3)n2)nc1 [[L2Cu3(PO4)]3+]
DLD-1; DLD-1, mean of replicates, read-out: Mean IC50
  IC50: 637 nM
DLD-1; DLD-1, read-out: Mean IC50 values
  IC50: 637 nM
DLD-1; DLD-1, single replicate, read-out: IC50 values for each replicate
  IC50: 613 nM and 668 nM and 654 nM
DLD-1; IC50 ARPE-19 / IC50 DLD-1
  Selectivity index (ARPE19): 257.10
DLD-1; IC50 MCF10A / IC50 DLD-1
  Selectivity index (MCF10A): 77.52
DLD-1; ratio of IC50, DLD-1
  Relative potency (+ anion to no anion), Ratio + anion:no anion: 4.83
DLD-1; ratio of SI (ARPE-19), DLD-1
  Selectivity indices relative to ARPE-19, Ratio + anion:no anion: 0.645
DLD-1; ratio of SI (MCF 10A), DLD-1
  Selectivity indices relative to MCF10A, Ratio + anion:no anion: 0.212
MiaPaCa2; IC50 ARPE-19 / IC50 MiaPaCa2
  Selectivity index (ARPE19): 1.36
MiaPaCa2; IC50 MCF10A / IC50 MiaPaCa2
  Selectivity index (MCF10A): 0.41
MiaPaCa2; MiaPaCa2, mean of replicates, read-out: Mean IC50
  IC50: 121000 nM
MiaPaCa2; MiaPaCa2, read-out: Mean IC50 values
  IC50: 121000 nM
MiaPaCa2; MiaPaCa2, single replicate, read-out: IC50 values for each replicate
  IC50: 108000 nM and 145000 nM and 109000 nM
MiaPaCa2; ratio of IC50, MiaPaCa2
  Relative potency (+ anion to no anion), Ratio + anion:no anion: 10.22
MiaPaCa2; ratio of SI (ARPE-19), MiaPaCa2
  Selectivity indices relative to ARPE-19, Ratio + anion:no anion: 0.305
MiaPaCa2; ratio of SI (MCF 10A), MiaPaCa2
  Selectivity indices relative to MCF10A, Ratio + anion:no anion: 0.100
ARPE-19 non-cancer cells; ARPE-19, mean of replicates, read-out: Mean IC50
  IC50: 164000 nM
ARPE-19 non-cancer cells; ARPE-19, single replicate, read-out: IC50 values for each replicate
  IC50: 144000 nM and 157000 nM and 173000 nM and 182000 nM
ARPE-19 non-cancer cells; [1]
  IC50: 164000 nM
ARPE-19 non-cancer cells; ratio of IC50, ARPE-19
  Relative potency (+ anion to no anion), Ratio + anion:no anion: 3.11
BxPC3; BXPC3, mean of replicates, read-out: Mean IC50
  IC50: 1680 nM
BxPC3; BXPC3, read-out: Mean IC50 values
  IC50: 1680 nM
BxPC3; BXPC3, single replicate, read-out: IC50 values for each replicate
  IC50: 704 nM and 1940 nM and 2090 nM and 2240 nM and 1430 nM
BxPC3; IC50 ARPE-19 / IC50 BXPC3
  Selectivity index (ARPE19): 97.37
BxPC3; IC50 MCF10A / IC50 BXPC3
  Selectivity index (MCF10A): 29.36
BxPC3; ratio of IC50, BXPC3
  Relative potency (+ anion to no anion), Ratio + anion:no anion: 5.74
BxPC3; ratio of SI (ARPE-19), BXPC3
  Selectivity indices relative to ARPE-19, Ratio + anion:no anion: 0.542
BxPC3; ratio of SI (MCF 10A), BXPC3
  Selectivity indices relative to MCF10A, Ratio + anion:no anion: 0.178
A549; A549, mean of replicates, read-out: Mean IC50
  IC50: 1220 nM
A549; A549, read-out: Mean IC50 values
  IC50: 1220 nM
A549; IC50 ARPE-19 / IC50 A549
  Selectivity index (ARPE19): 134.46
A549; IC50 MCF10A / IC50 A549
  Selectivity index (MCF10A): 40.54
A549; ratio of IC50, A549
  Relative potency (+ anion to no anion), Ratio + anion:no anion: 5.23
A549; ratio of SI (ARPE-19), A549
  Selectivity indices relative to ARPE-19, Ratio + anion:no anion: 0.595
A549; ratio of SI (MCF 10A), A549
  Selectivity indices relative to MCF10A, Ratio + anion:no anion: 0.196
HCT116 p53+/+; HCT116 p53+/+, mean of replicates, read-out: Mean IC50
  IC50: 3390 nM
HCT116 p53+/+; [2]
  IC50: 3390 nM
HCT116 p53+/+; HCT116 p53+/+, single replicate, read-out: IC50 values for each replicate
  IC50: 5270 nM and 3750 nM and 2150 nM and 2080 nM and 1850 nM
HCT116 p53+/+
  Selectivity index (ARPE19): 48.25
HCT116 p53+/+; IC50 MCF10A / IC50 HCT116 p53+/+
  Selectivity index (MCF10A): 14.55
HCT116 p53+/+; ratio of IC50, HCT116 p53+/+
  Relative potency (+ anion to no anion), Ratio + anion:no anion: 6.84
HCT116 p53+/+; ratio of SI (ARPE-19), HCT116 p53+/+
  Selectivity indices relative to ARPE-19, Ratio + anion:no anion: 0.455
HCT116 p53+/+; ratio of SI (MCF 10A), HCT116 p53+/+
  Selectivity indices relative to MCF10A, Ratio + anion:no anion: 0.150
MCF10A non-cancer cells; MCF10A non-cancer, read-out: Mean IC50 values
  IC50: 49400 nM
MCF10A non-cancer cells; MCF10A, mean of replicates, read-out: Mean IC50
  IC50: 49400 nM
MCF10A non-cancer cells; MCF10A, single replicate, read-out: IC50 values for each replicate
  IC50: 46700 nM and 51000 nM and 59300 nM and 40600 nM
MCF10A non-cancer cells; ratio of IC50, MCF10A
  Relative potency (+ anion to no anion), Ratio + anion:no anion: 1.02

## [Mn+2].[Mn+2].[Mn+2].c1ccc(-c2csc(NCCN(CCNc3nc(-c4ccccn4)cs3)CCNc3nc(-c4ccccn4)cs3)n2)nc1.c1ccc(-c2csc(NCCN(CCNc3nc(-c4ccccn4)cs3)CCNc3nc(-c4ccccn4)cs3)n2)nc1 [[L2Mn3]6+]
ARPE-19 non-cancer cells; ARPE-19, 96 h, MTT, individual run, read-out: IC50 values for each replicate
  IC50: 5140 nM and 2100 nM and 2120 nM and 2080 nM
ARPE-19 non-cancer cells; ARPE-19, 96 h, MTT, mean of at least 3 independent experiments, read-out: Mean IC50
  IC50: 2860 nM
ARPE-19 non-cancer cells; [1]
  IC50: 2860 nM
HCT116 p53+/+; HCT116 p53+/+, 96 h, MTT, individual run, read-out: IC50 values for each replicate
  IC50: 1780 nM and 529 nM and 1400 nM and 1450 nM and 1410 nM
HCT116 p53+/+; HCT116 p53+/+, 96 h, MTT, mean of at least 3 independent experiments, read-out: Mean IC50
  IC50: 1320 nM
HCT116 p53+/+; [2]
  IC50: 1320 nM
HCT116 p53+/+
  Selectivity index (ARPE19): 2.17
HCT116 p53+/+; cancer cells vs non-cancer cells (Fig. 5f)
  preferential selectivity towards cancer cells: ~ 2 fold
HCT116 p53+/+; mean IC50 ARPE-19 / mean IC50 HCT116 p53+/+
  SI (ARPE19): 2.173
